Data published in patent US5360796A, “Imidazo[1,2-a]pyridinylalkyl phosphonic acid compounds for treatment of neurotoxic injury” (G. D. Searle & Co., priority 1991, dated 1994).
Counter-ions that a name gives are not always drawn. Like-named read-outs stand apart in the source and are kept apart here.

Key:
NMDA receptor = test: NMDA-Selective Glutamate Binding Assay (L-[3H]glutamate); set-up: species or system rat; details: 12.5 nM L-[3H]glutamate, synaptic plasma membranes, read-out: NMDA Receptor Binding Data, Ki IC50 Binding NMDA
Description: (§1) Synaptic plasma membranes (SPM) were prepared as previously described [Monahah, J. B. and Michel, J., "Identification and Characterization of an N-methyl-D-aspartate-specific L[^3 H]glutamate Recognition Site in Synaptic Plasma Membranes, J. Neurochem., 48, 1699-1708 (1987)]. The SPM were stored at a concentration of 10-15 mg/ml in 0.32M sucrose, 0.5 mM EDTA, 1 mM MgSO4, 5 mM Tris/SO4, pH 7.4, under liquid nitrogen. The identity and purity of the subcellular fractions were confirmed by both electron microscopy and marker enzymes. Protein concentrations were determined by using a modification of the method of Lowry [Ohnishi, S. T. and Barr, J. K., "A Simplified Method of Quantitating Proteins using the Biuret and Phenol Reagents", Anal. Biochem., 86, 193-197 (1978)]. The SPM were treated identically for the [^3 H]AMPA (QUIS), [^3 H]kainate and sodium-dependent L-[^3 H]-glumatate binding assays. The SPM were thawed at room temperature, diluted twenty-fold with 50mM Tris/acetate, pH 7.4, incubated at 37° C. for 30 minutes, and centrifuged at 100,000 g for 15 minutes. The dilution, incubation, and centrifugation was repeated a total of three times. Prior to use in the NMDA-specific L-[^3 H]-glutamate binding assay the SPM were thawed, diluted twenty fold with 50 mM Tris/acetate, pH 7.4 containing 0.04% (v/v) Triton X-100, incubated for 30 minutes at 37° C. and centrifuged as described above. The Triton X-100 treated membranes were washed with 50 mM Tris/acetate, pH 7.4 and centrifuged at 100,000 g for 15 minutes a total of four times. […] The basic procedure for the receptor subclass binding assays was similar. This general method involved adding the radioligand (12.5 nM L-[^3 H] glutamate; 0.5 nM [^3 H]kainate or 10 nM [^3 H]AMPA) to the appropriate concentration of the test compound and initiating the assay by the addition of ice cold synaptic plasma membranes (0.2-0.45 mg). The binding assays were performed in 1.5 mL centrifuge tubes with the total volume adjusted to 1.0 mL. Additions of test compounds were made in 50 mM Tris/acetate, pH 7.4 and incubations were carried out at 0°-4° C. The incubation time for the NMDA and the AMPA binding assays was 10 minutes, for the kainate binding assay 60 minutes and for the sodium-dependent glutamate binding assay 15 minutes. The AMPA binding assay contained 100 mM KSCN and the sodium-dependent glutamate binding assay contained 150 mM sodium acetate in addition to the previously described reagents. To terminate the incubation, the samples were centrifuged for 15 minutes at 12,000 g and 4° C. in a Beckman Microfuge 12. The supernatant was aspirated and the pelleted membranes dissolved in Beckman BTS-450 tissue solubilizer for a minimum of 6 hours at room temperature. Beckman MP scintillation cocktail containing 7 mL/1 acetic acid was then added and the samples counted on a Beckman LS 5800 or 3801 liquid scintillation counter with automatic corrections for quenching and counting efficiency. Nonspecific binding was defined as the residual binding in the presence of either excess L-glutamate (0.1-0.4 mM), kainate (0.01 mM), or NMDA (0.5 mM), and was 15-25% of the total binding in the NMDA binding assay, 19-27% in the AMPA binding assay, 20-30% in the kainate binding assay and 10-15% in the sodium-dependent binding assay. Radioligand binding to the synaptic plasma membranes was analyzed using Scatchard and Hill transformations and the Ki values of the compounds determined using logit-log transformations. Calculations and regression analysis were performed using templates developed for Lotus 1, 2, 3 as previously described [Pullan, L. M. "Automated Radioligand Receptor Binding Analysis with Templates for Lotus", Computer Appln. Biosci., 3, 131 (1987)]. Binding results are reported in Table I for example compounds of the invention.

AMPA = test: [3H]AMPA (QUIS) binding assay; set-up: species or system rat; details: 10 nM [3H]AMPA, 100 mM KSCN, synaptic plasma membranes, pH 7.4, 0-4° C., 10 min; read-out: NMDA Receptor Binding Data, Ki IC50 Binding AMPA
Description: as §1

cGMP in cerebellum = test: Assay for Effect on cGMP Levels in Cerebellum; assay type: in vivo, mouse (Swiss-Webster); details: Mus musculus, sc, 0.5 h; 30 min prior to sacrifice; read-out: Decrease in cGMP ED50
Description: The purpose of this assay is to determine the extent of in vivo bioavailability and the potency as an NMDA antagonist of compound of the invention as compared to known NMDA antagonists, namely, 3(2-carboxypiperizine-4-yl)propyl-1-phosphonic acid (CPP) and cis-4-phosphonomethyl-2-piperidinecarboxylic acid (CGS 19755). Male Swiss-Webster mice (17-24 g were injected sub-cutaneously (s.c.) with compound of the invention and the known NMDA antagonist standards 30 minutes prior to sacrifice by focussed microwave irradiation. Groups consisted of 7-10 mice. Compounds of Ex. #7 was dissolved in isotonic saline and all compounds were administered in a volume of 0.2 ml per mouse. Cerebella samples were extracted in IN HCl. Hydrochloric acid in extracts of the cerebellum were freeze-dried for assay of cGMP with a commercial RIA kit (NEN). Statistics (Dunett's t-test) were performed as described previously [P. L. Wood et al., Neurochem., 19, 975-982 (1980)]. ED50 values were calculated from log-logit transformation of the dose-response data.

NMDA = details: D. E. Murphy et al, J. Pharmacol. Exp. Ther. 1987; cited from earlier work
[1] = tested on: TCP (1-[1-(2-thienyl)cyclohexyl]piperidine) binding; test: TCP Modulation Assay; set-up: species or system rat; details: for Ki: 2 nM tritiated TCP, 0.05 mM L-glutamate, rat brain SPM, read-out: TCP Ki IC50
Description: The effect on the TCP (1-[1-(2-thienyl)cyclohexyl]piperidine) binding was measured in rat brain synaptic membranes (SPM) prepared as previously described [J. B. Monahah & J. Michel; J. Neurochem. […] Prior to their use in the binding assay, frozen SPM were thawed, diluted twenty fold with 50 mM Tris/acetate (pH 7.4 containing 0.04% (v/v) Triton X-100), incubated for 30 min. at 37° C. and centrifuged at 95,000 xg for 15 min. The Triton X-100 treated SPM were washed with 5 mM Tris/HCl, pH 7.4 and centrifuged a total of six times. […] The samples were filtered through glass fiber filters (Schleicher & Schuell #32) which have been pretreated with 0.05% (v/v) polyethylenimine, washed 4 times with 2 ml of ice-cold 5 mM Tris/HCl buffer, and then counted on a Beckman LS 5800 liquid scintillation counter with automatic corrections for quenching and counting efficiency. Inhibition of TCP binding was measured as a decrease in the binding in the presence of 0.05 mM L-glutamate. Non-specific binding was defined as the residual binding in the presence of […] phencyclidine.

Row | SMILES | Ki (NMDA receptor; pH 7.4, 0-4° C., 10 min) [µM] | Ki (AMPA) [µM] | also measured
1 | O=C(O)c1cn2ccc(CP(=O)(O)O)cc2n1 [Example 18, 7-(phosphonomethyl)imidazo[1,2-a]pyridine-2-carboxylic acid] | > 100 | > 300 | 
2 | O=C(O)[C@H]1C[C@@H](CP(=O)(O)O)CCN1 (relative stereo) [CGS 19755, cis-4-phosphonomethyl-2-piperidinecarboxylic acid, reference compound] |  |  | ED50 (cGMP in cerebellum): 1 mg/kg
3 | Cc1ccc(P(=O)(O)O)c2nc(C(=O)O)cn12 [Example 49, 5-methyl-8-phosphonoimidazo[1,2-a]pyridine-2-carboxylic acid] | > 10 |  | 
4 | O=C(O)c1cn2c(P(=O)(O)O)cccc2n1 [Example 53, 5-phosphonoimidazo[1,2-a]pyridine-2-carboxylic acid] | > 10 |  | 
5 | O=C(O)c1cn2c(CP(=O)(O)O)c(Cl)ccc2n1 [Example 30, 6-chloro-5-(phosphonomethyl)imidazo[1,2-a]pyridine-2-carboxylic acid] | > 100 | > 300 | 
6 | Cc1c(C(=O)O)nc2c(CP(=O)(O)O)cccn12 [Example 67, 3-methyl-8-(phosphonomethyl)imidazo[1,2-a]pyridine-2-carboxylic acid, monohydrochloride] | > 100 | > 300 | 
7 | O=C(O)C1CN(CCCP(=O)(O)O)CCN1 (stereo not drawn) [CPP, 3-(2-carboxypiperazin-4-yl)propyl-1-phosphonic acid, reference compound] |  |  | ED50 (cGMP in cerebellum): 7.4 mg/kg; NMDA antagonism (in words) (NMDA): potent and selective NMDA antagonist
8 | O=C(O)c1cn2cc(CP(=O)(O)O)ccc2n1 [Example 13, 6-(phosphonomethyl)imidazo[1,2-a]pyridine-2-carboxylic acid] | > 100 | > 300 | 
9 | O=C(O)c1cn2c(C(O)P(=O)(O)O)cccc2n1 (stereo not drawn) [Example 57, 5-(hydroxyphosphonomethyl)imidazo[1,2-a]pyridine-2-carboxylic acid, monohydrochloride] | 5.8 | > 300 | TCP Binding Data (result in words) ([1]; no number given): Antag.
10 | O=C(O)c1cn2cccc(CP(=O)(O)O)c2n1 [Example 23, 8-(phosphonomethyl)imidazo[1,2-a]pyridine-2-carboxylic acid] | 4.5 | > 300 | Ki (NMDA receptor; Second batch): 10.5 µM; Ki ([1]; pH 7.4, 25° C., 60 min): 14 µM; Ki ([1]; second batch): 7.7 µM
